Entries after “also recorded” stand apart in the source; their conditions may differ.
Tests used:
mice [1] = assay: Tail flick test, subcutaneous L-threo-DOPS; assay type: in vivo
Description: Thermal stimulation at a certain level was given onto mice at the tail, and the latency until the animal flicked the tail out of the thermal stimulation was measured. The analgesic effect was judged in terms of prolonged latency by administration of a drug (tail-flick test, see European Journal of Pharmacology, 212, 1992).
The test was conducted by using a tail flick analgesia meter (MK-330, Muromachi Kikai). The intensity of the beam was adjusted to produce a control latency of 2 to 2.5 seconds, and a cut-off time was set to be 8 seconds. The experimental data obtained were shown in terms of latency (second).
L-Threo-DOPS was suspended in a 0.2% Tween 80 solution and the resulting suspension was subcutaneously administered in a dose of 100 to 400 mg/kg. The tail flick latency was then measured with passage of time to determine antinociceptive action, namely, analgesic activity.
(§1) In the left graph, the symbol .largecircle. denotes the group administered with vehicle only (n=8), and the symbol .circle-solid. denotes the group administered with L-threo-DOPS (n=5). […] In the right graph, the symbol V denotes the group administered with vehicle only. *P<0.05, **P<0.01 (when compared to the group administered with vehicle only).
(§2) The results obtained in the respective tests are all shown by means ±standard error. Statistically significant difference between the groups was determined by Student's t-test or Newman-Keuls test. When P<0.05, the difference was judged to be significant.

mice [2] = assay: Kaolin-induced writhing test; assay type: in vivo
Source text: (§3) Mice were used for the kaolin-induced writhing test and the formalin test, wherein animal model for assessment of chronic pain is used [Pain, 51, 195-198 (1992)].
b) Kaolin-Induced Writhing Test
The test was proposed by Fujiyoshi, T. et al. as a nociceptive test for the assessment of endogenous bradykinin-induced pain [Fujiyoshi et al., Agents and Actions, 27, 332 (1989)]. In the present invention, a method somewhat modified from the Fujiyoshi test was used for the assessment. That is, a suspension of 125 mg/kg of kaolin in 0.2% Tween 80 solution was intraperitoneally administered to mice in a dose of 0.25 ml/10 g. Immediately thereafter, the total number of writhing reactions which were observed during 20 minutes was counted.
Thirty minutes, 1 hour and 2 hours before administration of kaolin, L-threo-DOPS was subcutaneously administered in a dose ranging from 100 to 400 mg/kg.
as §1, with “only,” for “only (n=8),”, “L-threo-DOPS.” for “L-threo-DOPS (n=5).”, “The” for “In the right graph, the”, “only (n=5). **P<0.01, ***P<0.001” for “only. *P<0.05, **P<0.01”
as §2

mice [3] = assay: Formalin-induced nociceptive test; assay type: in vivo
Description: as §3
c) Formalin-Induced Nociceptive Test
Formalin (0.5%, 25 μl) was administered subcutaneously into a mouse at the sole of the right hind paw. Immediately thereafter, the time required for the mouse to conduct licking or biting behavior was counted for 30 minutes at intervals of 5 minutes. The results are shown separately for Phase I (0-5 minutes after the formalin administration) and Phase II (10-30 minutes after the formalin administration). […]
The symbol V denotes the group administered with vehicle only. *P<0.05 (as compared to the group administered with vehicle only).
as §2

mice [4] = assay: Effect of naloxone on L-threo-DOPS antinociception, tail flick test; assay type: in vivo; settings: for type of analgesic activity: from naloxone tests (tail flick and kaolin)
Description: (§4) Antagonistic Effect of L-threo-DOPS Antinociceptive Action on Naloxone (Morphine Antagonist)
(§5) Tests were conducted in the same way as the tail flick test method and the kaolin-induced writhing test method in Test Example 1 described above. In the tail flick test method, however, 1 mg/kg of naloxone was subcutaneously administered 40 minutes after administration of 400 mg/kg of L-threo-DOPS, and the latency was measured 60 minutes after the 400 mg/kg L-threo-DOPS administration. The obtained data are shown in terms of change in latency (Δ latency). In the kaolin-induced writhing test, 0.01 mg/kg of naloxone was subcutaneously administered 55 minutes after administration of 400 mg/kg of L-threo-DOPS, and kaolin was administered 5 minutes after the administration of naloxone.
(§6) The results obtained in the tests are all shown by means ±standard error. Statistically significant difference between the groups was determined by Student's t-test or Newman-Keuls test. When P<0.05, the difference was judged to be significant.
(§7) The symbol V denotes the group administered with vehicle only, and the symbol N.S. denotes that there is no significant difference as compared to the control group.

mice [5] = assay: Effect of phentolamine on L-threo-DOPS antinociception, tail flick test; assay type: in vivo
Description: Effect of Phentolamine as an α-Adrenaline Receptor Blocker on the Antinociceptive Action of L-threo-DOPS
Phentolamine was administered intracerebral-ventricularly (i.c.v.) or intrathecaly (i.th.) in a dose of 0.1 to 1 μg/mouse, 40 minutes after L-threo-DOPS was administered in a dose of 400 mg/kg. Then, the effect of phentolamine against L-threo-DOPS-induced antinociceptive action was determined in the tail flick test.
Statistically significant difference between the groups was determined by Student's t-test or Newman-Keuls test. When P<0.05, the difference was judged to be significant.
The results in FIG. 5 indicates change in latency (Δ latency, second) 60 minutes after the L-threo-DOPS administration.

[6] = cited from earlier work
[7] = Acute toxicity (LD50) in mouse; settings: in vivo
mouse = assay: Acute toxicity (LD50) in mouse; settings: oral and intraperitoneal
mice [8] = assay: Effect of naloxone on L-threo-DOPS antinociception, kaolin-induced writhing test; assay type: in vivo; settings: L-threo-DOPS 400 mg/kg; naloxone 0.01 mg/kg s.c.; 60 minutes
Description: as §4, §5, §6, §7

mice [9] = assay: Effect of benserazide on L-threo-DOPS antinociception, tail flick test; assay type: in vivo; settings: L-threo-DOPS 400 mg/kg s.c., 60 minutes
Description: Effect of Benserazide (Peripheral Nerve Decarboxylase Inhibitor) on the Antinociceptive Action of L-threo-DOPS
Benserazide was administered subcutaneously in a dose of 1 mg/kg, 60 minutes before the subcutainious administration of L-threo-DOPS (400 mg/kg). Alternatively, benserazide was administered intracerebralventricularly at a dose of 25 μg/mouse, 30 minutes before L-threo-DOPS was subcutaneously administered in a dose of 400 mg/kg. The effect of benserazide on the L-threo-DOPS-induced antinociceptive action 60 minutes after the L-threo-DOPS administration was examined according to the tail flick test.
(§8) The results obtained in this test are all shown by means ±standard error. Statistically significant difference between the groups was determined by Student's t-test or Newman-Keuls test. When P<0.05, the difference was judged to be significant.
The results in FIG. 6 indicate change in latency (Δ latency, second) 60 minutes after the L-threo-DOPS administration. […] The symbol V denotes the group administered with vehicle only, and the symbol N.S. denotes that there is no significant difference as compared to the control group.

mice [10] = assay: Tail flick test, oral L-threo-DOPS; assay type: in vivo
Description: Antinociceptive Action of L-threo-DOPS by Oral Administration
L-Threo-DOPS was orally administered to mice in doses of 200, 400 and 800 mg/kg, and was examined for the antinociceptive action according to the tail flick test method.
as §8
The results in FIG. 7 indicate, in the tail flick test, a relationship between the dose of L-threo-DOPS when orally administered and change in latency (Δ latency, second) 60 minutes after the L-threo-DOPS administration (n=6). *P<0.05, **P<0.01 (as compared to the control group).

[11] = 100 to 400 mg/kg s.c., 60 minutes after administration

N[C@H](C(=O)O)[C@H](O)c1ccc(O)c(O)c1 (relative stereo) [threo-DOPS, threo-3-(3,4-dihydroxyphenyl)serine]
analgesic effect in tail-flick test (summary) (mice [1]; s.c., mice): exhibits the analgesic effect dose-dependently
analgesic effect in kaolin-induced writhing test (summary) (mice [2]; s.c. and oral, mice): dose- dependently observed
analgesic effect in formalin test (summary) (mice [3]; s.c. and oral, mice): dose- dependently observed
type of analgesic activity (mice [4]): non-narcotic
analgesic effect in presence of naloxone (summary) (mice [4]; morphine antagonist naloxone, tail flick and kaolin tests): not antagonized by morphine antagonist, naloxone
analgesic effect in presence of phentolamine (summary) (mice [5]; adrenaline blocker phentolamine administered in the brain): suppressed
fate after administration ([6]; known, U.S. Pat. No. 4,497,826): transported to a brain that is a site on which threo-DOPS acts, and then decarboxylated therein into a corresponding noradrenaline
transportation into brain in combination with decarboxylase inhibitor ([6]; with decarboxylase inhibitor, J. Pharm. Pharmacol., 1981, 33, 772-777): can be accelerated
LD50 ([7]; ip): ~10000 mg/kg
LD50 ([7]; po): ≥ 10000 mg/kg
toxicity (mouse): extremely weak toxicity

N[C@H](C(=O)O)[C@H](O)c1ccc(O)c(O)c1 [L-threo-DOPS]
time after administration at which significantly prolonged tail flick latency was observed (mice [1]; 400 mg/kg s.c.): ≥ 40 min
time of maximum tail flick latency (mice [1]; 400 mg/kg s.c.): one
tail flick latency (mice [1]; 400 mg/kg s.c., 40 or more minutes after administration): significantly prolonged latency
tail flick latency, significance of effect (mice [1]; 400 mg/kg s.c., 2 hours after administration): no significant effect was observed
antinociceptive action, dose dependence (tail flick) (mice [1]; [11]): dose-dependent in the range of 100 to 400 mg/kg
antinociceptive action, kaolin-induced writhing (mice [2]; 200 mg/kg s.c.): significant antinociceptive action
count of kaolin-induced writhing response (mice [2]; 200 mg/kg s.c.): decreased to the half
decrease in writhing count (mice [2]; 200 mg/kg s.c., 30 minutes after administration): the observed decrease was insignificant
decrease in writhing count (mice [2]; 200 mg/kg s.c., 2 hours after administration): the observed decrease was insignificant
effect on writhing, dose dependence (mice [2]; [11]): dose-dependent in the range of 100 to 400 mg/kg
effect of increased dose in formalin test (mice [3]; 400 mg/kg s.c., not shown in graphs): no better effect was obtained
time required for nociceptive reaction (licking and biting), Phase I (mice [3]; 100 to 200 mg/kg s.c., 0-5 minutes after formalin): did not affect the time required for the nociceptive reaction
time required for nociceptive reaction (licking and biting), Phase II (mice [3]; 100 to 200 mg/kg s.c., 10-30 minutes after formalin): dose-dependently inhibited the reaction
antinociceptive action in presence of naloxone (tail flick) (mice [4]; L-threo-DOPS 400 mg/kg, naloxone 1 mg/kg s.c., 60 minutes): hardly affected by morphine antagonist, naloxone
type of analgesic activity (mice [4]): non-narcotic analgesic activity; also recorded: non-opiate type antinociceptive action
antinociceptive action in presence of naloxone (kaolin-induced writhing) (mice [8]): hardly affected by morphine antagonist, naloxone
inhibitory effect of phentolamine on L-threo-DOPS-induced prolongation of latency (mice [5]; L-threo-DOPS 400 mg/kg s.c., phentolamine 0.1 μg/mouse i.c.v.): also observed
prolongation of latency by L-threo-DOPS in presence of phentolamine (mice [5]; L-threo-DOPS 400 mg/kg s.c., phentolamine 1 μg/mouse i.c.v.): almost completely inhibited
antinociceptive action of L-threo-DOPS in presence of phentolamine, right graph of FIG. 5 (mice [5]; L-threo-DOPS 400 mg/kg s.c., phentolamine 1 μg/mouse, printed intracerebralventricularly (right graph)): partially but significantly inhibited
antinociceptive action in presence of benserazide (mice [9]; benserazide 25 μg/mouse i.c.v.): potently inhibited
antinociceptive action in presence of benserazide (mice [9]; benserazide 1 mg/kg s.c.): did not give any significant effect
effectiveness by oral administration (mice [10]; oral): also effective when orally administered
time after administration at which significant effect was observed (mice [10]; oral, 200, 400 and 800 mg/kg): ≥ 40 min
time of maximum antinociceptive effect (mice [10]; oral, 200, 400 and 800 mg/kg): 60 min
antinociceptive action, dose dependence (oral tail flick) (mice [10]; oral, 200 to 800 mg/kg): dose-dependently

Cc1ccc(N(CC2=NCCN2)c2cccc(O)c2)cc1 [phentolamine]
tail flick latency, phentolamine alone (mice [5]; phentolamine 1 μg/mouse i.c.v.): did not affect the latency

Reference: US5616618A, “Threo-3-(3,4-dihydroxyphenyl)serine analgesic composition” (priority 1993, dated 1997)
